Source: ChEMBL document CHEMBL5512632, “Unlocking the potential of 1,4-naphthoquinones: A comprehensive review of their anticancer properties” (Eur J Med Chem, 2024)

Experiments:
THP-1 = assay: Antiproliferative activity against human THP-1 cells assessed as inhibition of cell growth; type: functional, cell-based
K562 = assay: Antiproliferative activity against human K562 cells assessed as inhibition of cell growth; type: functional, cell-based
MV4-11 = assay: Cytotoxicity against human MV4-11 cells; type: functional, cell-based
NCI-H460 = assay: Antiproliferative activity against human NCI-H460 cells assessed as inhibition of cell growth incubated for 24 hrs by MTT assay; type: functional, cell-based; settings: NCI-H460, 24 h
MDA-MB-231 = assay: Antiproliferative activity against human MDA-MB-231 cells assessed as inhibition of cell growth incubated for 24 hrs by MTT assay; type: functional, cell-based; settings: MDA-MB-231, 24 h
A2780 = assay: Antiproliferative activity against human A2780 cells assessed as inhibition of cell growth incubated for 24 hrs by MTT assay; type: functional, cell-based; settings: A2780, 24 h
HCT-15 [1] = assay: Antiproliferative activity against human HCT-15 cells assessed as inhibition of cell growth incubated for 24 hrs by MTT assay; type: functional, cell-based; settings: HCT-15, 24 h
MCF7 [2] = assay: Antiproliferative activity against human MCF7 cells assessed as inhibition of cell growth incubated for 24 hrs by MTT assay; type: functional, cell-based; settings: MCF7, 24 h
PC-3 = assay: Antiproliferative activity against human PC-3 cells assessed as inhibition of cell growth incubated for 72 hrs by MTT assay; type: functional, cell-based; settings: PC-3, 72 h
LNCaP = assay: Antiproliferative activity against human LNCaP cells assessed as inhibition of cell growth incubated for 72 hrs by MTT assay; type: functional, cell-based
SGC-7901 = assay: Antiproliferative activity against human SGC-7901 cells assessed as inhibition of cell growth incubated for 48 hrs by MTT assay; type: functional, cell-based; settings: SGC-7901, 48 h
HepG2 = assay: Antiproliferative activity against human HepG2 cells assessed as inhibition of cell growth incubated for 48 hrs by MTT assay; type: functional, cell-based; settings: HepG2, 48 h
NCI-H187 = assay: Antiproliferative activity against human NCI-H187 cells; type: functional, cell-based
MCF7 [3] = assay: Antiproliferative activity against human MCF7 cells; type: functional, cell-based
HCT-116 = assay: Cytotoxicity against human HCT-116 cells incubated for 48 hrs by MTT assay; type: functional, cell-based; settings: HCT-116, 48 h
HCT-15 [4] = assay: Cytotoxicity against human HCT-15 cells incubated for 48 hrs by MTT assay; type: functional, cell-based; settings: HCT-15, 48 h
AGS [5] = assay: Antiproliferative activity against human AGS cells assessed as inhibition of cell growth incubated for 3 days by MTT assay; type: functional, cell-based; settings: 72 h
HeLa = assay: Cytotoxicity against human HeLa cells assessed as inhibition of cell growth incubated for 48 hrs by MTT assay; type: functional, cell-based
SK-MEL-5 = assay: Antiproliferative activity against human SK-MEL-5 cells assessed as inhibition of cell growth incubated for 96 hrs by SRB assay; type: functional, cell-based; settings: SK-MEL-5, 96 h
MCF7 [6] = assay: Cytotoxicity against human MCF7 cells assessed as reduction in cell growth incubated for 48 hrs by MTT assay; type: functional, cell-based; settings: MCF7, 48 h
T-24 = assay: Cytotoxicity against human T24 cells assessed as reduction in cell growth incubated for 48 hrs by MTT assay; type: functional, cell-based; settings: T-24, 48 h
DU-145 = assay: Cytotoxicity against human DU-145 cells assessed as reduction in cell growth incubated for 48 hrs by MTT assay; type: functional, cell-based; settings: DU-145, 48 h
HT-29 = assay: Antiproliferative activity against human HT-29 cells assessed as inhibition of cell growth incubated for 48 hrs by MTT assay; type: functional, cell-based; settings: HT-29, 48 h
NCI-N87 = assay: Antiproliferative activity against human NCI-N87 cells assessed as inhibition of cell growth incubated for 24 hrs by MTT reagent based microplate reader assay; type: functional; settings: NCI-N87, 24 h
[7] = Antiproliferative activity against human YCC-16 cells assessed as inhibition of cell growth incubated for 24 hrs by MTT reagent based microplate reader assay; type: functional; settings: YCC-16, 24 h
MKN-45 = assay: Antiproliferative activity against human MKN-45 cells assessed as inhibition of cell growth incubated for 24 hrs by MTT reagent based microplate reader assay; type: functional; settings: MKN-45, 24 h
[8] = Antiproliferative activity against human SNU-484 cells assessed as inhibition of cell growth incubated for 24 hrs by MTT reagent based microplate reader assay; type: functional; settings: SNU-484, 24 h
AGS [9] = assay: Antiproliferative activity against human AGS cells assessed as inhibition of cell growth incubated for 24 hrs by MTT reagent based microplate reader assay; type: functional
[10] = Antiproliferative activity against human YCC-1 cells assessed as inhibition of cell growth incubated for 24 hrs by MTT reagent based microplate reader assay; type: functional; settings: YCC-1, 24 h
MKN-28 = assay: Antiproliferative activity against human MKN-28 cells assessed as inhibition of cell growth incubated for 24 hrs by MTT reagent based microplate reader assay; type: functional; settings: MKN-28, 24 h
[11] = Antiproliferative activity against human YCC-6 cells assessed as inhibition of cell growth incubated for 24 hrs by MTT reagent based microplate reader assay; type: functional; settings: YCC-6, 24 h
[12] = Antiproliferative activity against human SNU-216 cells assessed as inhibition of cell growth incubated for 24 hrs by MTT reagent based microplate reader assay; type: functional; settings: SNU-216, 24 h

## CCNC1=CC(=O)c2ccccc2C1=O
THP-1
  IC50: 23 µM
K562
  IC50: 78 µM

## O=C(Cc1ccc(C(=O)NO)cc1)NC1=CC(=O)c2ccccc2C1=O
MV4-11
  EC50: 0.367 µM

## O=C1C=C(SCCO)C(=O)c2ccccc21
NCI-H460
  IC50: 4.24 µM
MDA-MB-231
  IC50: 16 µM
A2780
  IC50: 3.69 µM

## O=C(NNC1=CC(=O)c2ccccc2C1=O)c1ccncc1
HCT-15 [1]
  IC50: 28.2 µM
MCF7 [2]
  IC50: 20.9 µM

## O=C1c2ccccc2C(=O)c2oc(-c3ccccc3Cl)nc21
PC-3
  IC50: 1.26 µM
LNCaP
  IC50: 0.1 µM

## COc1ccc(C2C3=C(Nc4nc(SC)nc(N)c42)C(=O)c2ccccc2C3=O)cc1Br (configuration not stated)
SGC-7901
  IC50: 4.39 µM
HepG2
  IC50: 5.91 µM

## O=C(/C=C/C=C/c1ccc2c(c1)OCO2)OC1=CC(=O)c2ccccc2C1=O
NCI-H187
  IC50: 2.24 µM
MCF7 [3]
  IC50: 3.84 µM

## C=CC(C)(C)C(SC(=O)c1cc(OC)c(OC)c(OC)c1)c1cc(OC)c2c(c1OC)/C(=N\O)C=C/C2=N\O (configuration not stated)
HCT-116
  IC50: 4.95 µM
HCT-15 [4]
  IC50: 3.67 µM

## Cn1c(=O)c2c3c(c(-c4cccs4)nc2n(C)c1=O)C(=O)c1ccccc1C3=O
AGS [5]
  IC50: 3.3 µM

## CC(C)(C)SC1=C(Cl)C(=O)c2ccccc2C1=O
HeLa
  IC50: 10.2 µM

## C=CC/N=c1\sc2c(n1NC(=O)c1cc3ccc1CCc1ccc(cc1)CC3)C(=O)c1ccccc1C2=O
SK-MEL-5
  IC50: 0.81 µM

## COc1cc(NC2=C(C(=O)c3ccccc3)C(=O)c3ccccc3C2=O)cc(OC)c1OC
MCF7 [6]
  IC50: 7.53 µM
T-24
  IC50: 11.6 µM
DU-145
  IC50: 8.12 µM

## O=C(c1cccs1)c1cc2c(s1)C(=O)c1ccccc1C2=O
HT-29
  IC50: 1.73 µM

## COc1ccc(SC2=CC(=O)c3c(OC)ccc(OC)c3C2=O)cc1
NCI-N87
  IC50: 0.73 µM
[7]
  IC50: 1.35 µM
MKN-45
  IC50: 0.63 µM
[8]
  IC50: 0.64 µM
AGS [9]
  IC50: 0.32 µM
[10]
  IC50: 0.71 µM
MKN-28
  IC50: 0.56 µM
[11]
  IC50: 0.42 µM
[12]
  IC50: 1.22 µM
